Key:
[1] = system: control sera (pooled serum of ten healthy LUMC hospital workers; commercial negative donor pooled serum from the Dutch bloodbank); type: binding, human; parameters: Binding of Control serum LUMC to linear peptides / Binding of Control serum Blood-bank to linear peptides / Binding of Control serum LUMC to looped peptides / Binding of Control Serum Blood-Bank to Looped peptides / Binding of Control serum LUMC to linear peptides of the protein M of SARS-CoV Urbani / Binding of Control serum Blood-bank to linear peptides of the protein M of SARS-CoV Urbani / Binding of Control serum LUMC to looped peptides of the protein M of SARS-CoV Urbani / Binding of Control Serum Blood-Bank to Looped peptides of the protein M of SARS-CoV Urbani: unit not given here
[2] = system: rabbit serum obtained by immunizing a rabbit with the SARS-CoV strain Frankfurt 1; type: binding; parameters: Binding of a rabbit serum to linear peptides / Binding of a rabbit serum to looped peptides / Rabbit serum linear peptides / Rabbit serum looped peptides / Binding of a rabbit serum to linear peptides of protein N of SARS-CoV Urbani (Rabbit serum linear peptides) / Binding of a rabbit serum to looped/cyclic peptides of protein N of SARS-CoV Urbani (Rabbit serum looped peptides): unit not given here
[3] = system: antibodies in sera from SARS patients (sera 1a, 1b, 2, 6, 37, 62, London, SARS-yellow, SARS-green); type: binding, human; parameters: Binding of serum 6 to linear peptides of protein X1 of SARS-CoV Urbani / Binding of serum 37 to linear peptides of protein X1 of SARS-CoV Urbani / Binding of serum 6 to looped/cyclic peptide (PEPSCAN-ELISA) / Binding of serum 37 to looped/cyclic peptide (PEPSCAN-ELISA) / Binding of serum 37 to looped/cyclic peptides of protein X1 of SARS-CoV Urbani / Binding of serum 6 to linear peptides of protein X2 / Binding of serum 37 to linear peptides of protein X2 / Binding of serum 37 to looped/cyclic peptides of protein X2 of SARS-CoV Urbani / Binding of serum 6 to linear peptides of protein M of SARS-CoV Urbani / Binding of serum 37 to linear peptides of protein M of SARS-CoV Urbani / Binding of serum 6 to looped/cyclic peptides of protein M of SARS-CoV Urbani / Binding of serum 37 to looped/cyclic peptides of protein M of SARS-CoV Urbani / Binding of serum 6 to linear peptides of protein X3 of SARS-CoV Urbani / Binding of serum 37 to linear peptides of protein X3 of SARS-CoV Urbani / Binding of serum 37 to looped/cyclic peptides of protein X3 of SARS-CoV Urbani / Binding of serum 6 to linear peptides of protein X4 of SARS-CoV Urbani / Binding of serum 37 to linear peptides of protein X4 of SARS-CoV Urbani / Binding of serum 37 to looped/cyclic peptides of protein X4 of SARS-CoV Urbani / Binding of serum 6 to linear peptides of protein X5 of SARS-CoV Urbani / Binding of serum 37 to linear peptides of protein X5 of SARS-CoV Urbani / Binding of serum 37 to looped/cyclic peptides of protein X5 of SARS-CoV Urbani / Binding of serum 6 to linear peptides of protein N of SARS-CoV Urbani / Binding of serum 37 to linear peptides of protein N of SARS-CoV Urbani / Binding of serum 6 to linear peptide (PEPSCAN-ELISA) / Binding of serum 1a to looped/cyclic peptides of protein N of SARS-CoV Urbani / Binding of serum 1b to looped/cyclic peptides of protein N of SARS-CoV Urbani / Binding of serum 2 to looped/cyclic peptides of protein N of SARS-CoV Urbani / Binding of serum 6 to looped/cyclic peptides of protein N of SARS-CoV Urbani / Binding of serum 37 to looped/cyclic peptides of protein N of SARS-CoV Urbani / Binding of serum 62 to looped/cyclic peptides of protein N of SARS-CoV Urbani / Binding of serum London to looped/cyclic peptides of protein N of SARS-CoV Urbani / Binding of serum SARS-green to looped/cyclic peptides of protein N of SARS-CoV Urbani: unit not given here

Row | Sequence | Binding of Control Serum Blood-Bank to Looped peptides [1] | Binding of Control serum Blood-bank to linear peptides [1] | Binding of Control serum LUMC to linear peptides [1] | Binding of Control serum LUMC to looped peptides [1] | Rabbit serum linear peptides [2] | Rabbit serum looped peptides [2] | Binding of serum 1a to linear peptides of protein X4 of SARS-CoV Urbani [3] | Binding of serum 1b to linear peptides of protein X4 of SARS-CoV Urbani [3] | Binding of serum 2 to linear peptides of protein X4 of SARS-CoV Urbani [3] | Binding of a rabbit serum to linear peptides [2] | Binding of a rabbit serum to looped peptides [2] | Binding of serum 1a to linear peptides of protein X1 of SARS-CoV Urbani [3] | Binding of serum 1b to linear peptides of protein X1 of SARS-CoV Urbani [3] | Binding of serum 2 to linear peptides of protein X1 of SARS-CoV Urbani [3] | Binding of serum 6 to linear peptides of protein X1 of SARS-CoV Urbani [3] | Binding of serum 37 to linear peptides of protein X1 of SARS-CoV Urbani [3] | Binding of serum 62 to linear peptides of protein X1 of SARS-CoV Urbani [3] | Binding of serum London to linear peptides of protein X1 of SARS-CoV Urbani [3] | Binding of serum SARS-green to linear peptides of protein X1 of SARS-CoV Urbani [3] | Binding of serum SARS-yellow to linear peptides of protein X1 of SARS-CoV Urbani [3] | other results
1 | VLLKEPCPSGTYEGN | 0.9 | 0.8 | 0.7 | 0.8 | 0.4 | 0.3 | 0.8 | 0.7 | 0.4 |  |  |  |  |  |  |  |  |  |  |  | Binding of serum 1a to looped/cyclic peptides of protein X4 of SARS-CoV Urbani [3]: 0.8; Binding of serum 1b to looped/cyclic peptides of protein X4 of SARS-CoV Urbani [3]: 0.7; Binding of serum 2 to looped/cyclic peptides of protein X4 of SARS-CoV Urbani [3]: 0.6; Binding of serum 6 to linear peptides of protein X4 of SARS-CoV Urbani [3]: 0.7; Binding of serum 6 to looped/cyclic peptides of protein X4 of SARS-CoV Urbani [3]: 0.7; Binding of serum 37 to linear peptides of protein X4 of SARS-CoV Urbani [3]: 0.7; Binding of serum 37 to looped/cyclic peptides of protein X4 of SARS-CoV Urbani [3]: 0.8; Binding of serum 62 to linear peptides of protein X4 of SARS-CoV Urbani [3]: 0.8; Binding of serum 62 to looped/cyclic peptides of protein X4 of SARS-CoV Urbani [3]: 0.7; Binding of serum London to linear peptides of protein X4 of SARS-CoV Urbani [3]: 0.8; Binding of serum London to looped/cyclic peptides of protein X4 of SARS-CoV Urbani [3]: 0.3; Binding of serum SARS-green to linear peptides of protein X4 of SARS-CoV Urbani [3]: 0.6; Binding of serum SARS-green to looped/cyclic peptides of protein X4 of SARS-CoV Urbani [3]: 0.5; Binding of serum SARS-yellow to linear peptides of protein X4 of SARS-CoV Urbani [3]: 0.1; Binding of serum SARS-yellow to looped/cyclic peptides of protein X4 of SARS-CoV Urbani [3]: 0.4
2 | VAFLAVFQSATKIIA | 0.7 | 0.6 | 0.5 | 0.7 |  |  |  |  |  | 0.2 | 0.6 | 0.6 | 0.5 | 0.5 | 0.7 | 0.6 | 0.6 | 0.2 | 0.2 | 0.4 | Binding of serum 1a to looped/cyclic peptide (PEPSCAN-ELISA) [3]: 0.6; Binding of serum 1b to looped/cyclic peptide (PEPSCAN-ELISA) [3]: 0.4; Binding of serum 2 to looped/cyclic peptide (PEPSCAN-ELISA) [3]: 0.6; Binding of serum 6 to looped/cyclic peptide (PEPSCAN-ELISA) [3]: 0.7; Binding of serum 37 to looped/cyclic peptide (PEPSCAN-ELISA) [3]: 0.6; Binding of serum 62 to looped/cyclic peptide (PEPSCAN-ELISA) [3]: 0.6; Binding of serum London to looped/cyclic peptide (PEPSCAN-ELISA) [3]: 0.7; Binding of serum SARS-green to looped/cyclic peptide (PEPSCAN-ELISA) [3]: 0.4; Binding of serum SARS-yellow to looped/cyclic peptide (PEPSCAN-ELISA) [3]: 0.5
3 | QEEVQQELYSPLFLI | 0.7 | 0.8 | 0.8 | 0.8 | 0.4 | 0.4 | 0.8 | 0.9 | 0.6 |  |  |  |  |  |  |  |  |  |  |  | Binding of serum 6 to linear peptides of protein X4 of SARS-CoV Urbani [3]: 0.6; Binding of serum 37 to linear peptides of protein X4 of SARS-CoV Urbani [3]: 0.8; Binding of serum 62 to linear peptides of protein X4 of SARS-CoV Urbani [3]: 0.8; Binding of serum London to linear peptides of protein X4 of SARS-CoV Urbani [3]: 0.8; Binding of serum SARS-green to linear peptides of protein X4 of SARS-CoV Urbani [3]: 1.0; Binding of serum SARS-yellow to linear peptides of protein X4 of SARS-CoV Urbani [3]: 0.8; Recognition of the peptide by sera of SARS-CoV infected individuals, and form (linear, looped/cyclic) in which it is recognized [3]: recognized in looped/cyclic form
4 | CKYTQSTALQELLIQ | 0.4 | 0.6 | 0.5 | 0.6 |  |  |  |  |  | 0.2 | 0.2 |  |  |  |  |  |  |  |  |  | Binding of serum 1a to linear peptides of protein X2 [3]: 0.7; Binding of serum 1a to looped/cyclic peptides of protein X2 of SARS-CoV Urbani [3]: 0.6; Binding of serum 1b to linear peptides of protein X2 [3]: 0.5; Binding of serum 1b to looped/cyclic peptides of protein X2 of SARS-CoV Urbani [3]: 0.6; Binding of serum 2 to linear peptides of protein X2 [3]: 0.5; Binding of serum 2 to looped/cyclic peptides of protein X2 of SARS-CoV Urbani [3]: 0.5; Binding of serum 6 to linear peptides of protein X2 [3]: 0.4; Binding of serum 6 to looped/cyclic peptides of protein X2 of SARS-CoV Urbani [3]: 0.4; Binding of serum 37 to linear peptides of protein X2 [3]: 0.7; Binding of serum 37 to looped/cyclic peptides of protein X2 of SARS-CoV Urbani [3]: 0.3; Binding of serum 62 to linear peptides of protein X2 [3]: 0.7; Binding of serum 62 to looped/cyclic peptides of protein X2 of SARS-CoV Urbani [3]: 0.4; Binding of serum London to linear peptides of protein X2 [3]: 0.5; Binding of serum London to looped/cyclic peptides of protein X2 of SARS-CoV Urbani [3]: 0.3; Binding of serum SARS-green to linear peptides of protein X2 [3]: 0.7; Binding of serum SARS-green to looped/cyclic peptides of protein X2 of SARS-CoV Urbani [3]: 0.4; Binding of serum SARS-yellow to linear peptides of protein X2 [3]: 0.6; Binding of serum SARS-yellow to looped/cyclic peptides of protein X2 of SARS-CoV Urbani [3]: 0.3
5 | LLLFVTIYSHLLLVA | 0.5 | 0.4 | 0.4 | 0.5 |  |  |  |  |  | 0.1 | 0.5 | 0.7 | 0.5 | 0.6 | 0.3 | 0.5 | 0.4 | 0.2 | 0.0 | 0.3 | Binding of serum 1a to looped/cyclic peptide (PEPSCAN-ELISA) [3]: 0.5; Binding of serum 1b to looped/cyclic peptide (PEPSCAN-ELISA) [3]: 0.3; Binding of serum 2 to looped/cyclic peptide (PEPSCAN-ELISA) [3]: 0.4; Binding of serum 6 to looped/cyclic peptide (PEPSCAN-ELISA) [3]: 0.2; Binding of serum 37 to looped/cyclic peptide (PEPSCAN-ELISA) [3]: 0.5; Binding of serum 62 to looped/cyclic peptide (PEPSCAN-ELISA) [3]: 0.4; Binding of serum London to looped/cyclic peptide (PEPSCAN-ELISA) [3]: 0.2; Binding of serum SARS-green to looped/cyclic peptide (PEPSCAN-ELISA) [3]: 0.2; Binding of serum SARS-yellow to looped/cyclic peptide (PEPSCAN-ELISA) [3]: 0.4
6 | TIVVTEGDGISTPKL | 0.6 | 0.5 | 0.5 | 0.7 |  |  |  |  |  | 0.1 | 0.5 | 0.6 | 0.5 | 0.5 | 0.6 | 0.6 | 0.5 | 0.3 | 0.3 | 0.3 | Binding of serum 1a to looped/cyclic peptides of protein X1 of SARS-CoV Urbani [3]: 0.7; Binding of serum 1b to looped/cyclic peptides of protein X1 of SARS-CoV Urbani [3]: 0.7; Binding of serum 2 to looped/cyclic peptides of protein X1 of SARS-CoV Urbani [3]: 0.5; Binding of serum 6 to looped/cyclic peptides of protein X1 of SARS-CoV Urbani [3]: 0.4; Binding of serum 37 to looped/cyclic peptides of protein X1 of SARS-CoV Urbani [3]: 0.7; Binding of serum 62 to looped/cyclic peptides of protein X1 of SARS-CoV Urbani [3]: 0.6; Binding of serum London to looped/cyclic peptides of protein X1 of SARS-CoV Urbani [3]: 0.2; Binding of serum SARS-green to looped/cyclic peptides of protein X1 of SARS-CoV Urbani [3]: 0.6; Binding of serum SARS-yellow to looped/cyclic peptides of protein X1 of SARS-CoV Urbani [3]: 0.5
